Like-named read-outs stand apart in the source and are kept apart here.
Assays:
[1] = system: Adenovirus 5 (AdV5); assay: Cytopathic effects (CPE) reduction assay, AdV5 in HFF cells, 384-well; assay type: cell-based, human adenovirus 5 (AdV5); conditions: for EC50: AdV 384 Well CPE, HFF cells, average and SD from five independent experiments
Protocol: Cell monolayers were infected at a multiplicity of infection (MOI) of approximately 0.005 PFU/cell with virus strains including AdV5. […] Cytopathology was determined by the addition of CellTiter-Glo® reagent (Promega, Madison, Wis.). Concentrations of antiviral test compounds sufficient to reduce CPE by 50% (EC50) were interpolated from the experimental data using standard methods in Microsoft® Excel.

[2] = system: human foreskin fibroblast (HFF) cells; assay: Cytotoxicity, CellTiter-Glo cell viability in HFF cells
Protocol: (§1) Human foreskin tissue was obtained from the University of Alabama at Birmingham tissue procurement facility with approval from the Institutional Review Board. The tissue was stored at 4° C. in cell culture medium consisting of minimum essential media (MEM) with Earle's salts supplemented with 10% fetal bovine serum (FBS; HyClone, Inc., Logan, Utah) and standard concentration of L-glutamine, amphotericin B (Fungizone), and vancomycin. The tissue was then placed in a phosphate-buffered saline solution, minced, and rinsed to remove the red blood cells. Tissue fragments were then resuspended in a trypsin-EDTA solution and incubated at 37° C. to disperse the cells, which were then collected by centrifugation. Cell pellets were then resuspended in 4 ml culture medium, placed in a 25-cm^2 tissue culture flask, and incubated at 37° C. for 24 h. The culture medium was then replaced with fresh medium and condition of the cells was monitored daily until a confluent cell monolayer was formed. The HFF cells were then expanded through serial passages in standard growth medium of MEM with Earle's salts supplemented with 10% FBS, L-glutamine, penicillin, and gentamicin. Each lot of cells was confirmed to be free of mycoplasma infection and routinely passaged or used for assays at or before passage 10.
(§2) Antiviral and cytotoxicity data were obtained in a series of three to five separate experiments for each virus to provide an accurate estimate of antiviral activity and statistical data. Each assay included positive and negative control compounds as well as infected and uninfected controls to ensure the integrity of the experiment.
(§3) The CPE reduction assays were performed in monolayers of human foreskin fibroblast (HFF) cells (5000/well) in 384-well plates in assay media consisting of MEM with Earle's salts, 2% FBS and standard concentrations of L-glutamine, penicillin and gentamycin. 5000 cells were seeded in 384-well microtiter plates and incubated at 37° C. in a humidified 5% CO2 incubator for 24 hours to allow for formation of confluent monolayers.
(§4) Cell monolayers were infected at a multiplicity of infection (MOI) of approximately 0.005 PFU/cell with virus strains including AdV5. […] Cytopathology was determined by the addition of CellTiter-Glo® reagent (Promega, Madison, Wis.).

[3] = system: ocular AdV infections; conditions: topical, literature; cited from earlier work
[4] = Cytotoxicity, CellTiter-Glo cell viability in HFF cells; conditions: human, human foreskin fibroblast (HFF) cells
Protocol: as §1, §2, §3, §4

[5] = HFF cells, 384-well, average and SD from five independent experiments

SMILES | EC50 [1] | CC50 [2, 5] | further results
Cc1cn([C@H]2C[C@H](O)[C@]3(CO)C[C@H]23)c(=O)[nH]c1=O [N-MCT, N-methanocarbathymidine] | 57 ± 47 µM | 72 ± 33 µM | 
Nc1nc(O)c2ncn(COC(CO)CO)c2n1 [GCV, ganciclovir] |  |  | efficacy in the treatment of AdV conjunctivitis in clinical trials [3]: lacks efficacy; selectivity ratio ([1]; human, adenovirus 5, HFF cells, read-out: SI (selective index, CC50/EC50)): ≥ 1.5; CC50 [4]: > 100 µM
Nc1nc2c(ncn2COCCO)c(=O)[nH]1 [ACV, acyclovir] |  |  | CC50 [4]: > 100 µM
O=c1[nH]c(=O)n([C@@H]2CO[C@H](CO)O2)cc1/C=C/Br [L-BHDU, L-Bromovinyl-Hydroxymethyl-Dioxolan Uracil] | > 100 µM |  | CC50 [2]: > 100 µM
OC[C@H]1O[C@@H](n2c(Br)nc3cc(Cl)c(Cl)cc32)[C@H](O)[C@@H]1O [BDCRB, bromodichlororibobenzimidazole] | 70 ± 39 µM | 91 ± 13 µM | 
Nc1ncnc2c1ncn2CCOCP(=O)(O)O [PMEA, adefovir] |  | > 100 µM | 
O=c1[nH]c(=S)c(I)cn1[C@H]1C[C@H](O)[C@@H](CO)O1 [4-thio-IDU, 4-thioidoxuridine] |  | 26 ± 24 µM | EC50 ([1]; Human mastadenovirus C): 11 ± 9.4 µM
O=c1[nH]c(=O)n([C@@H]2O[C@H](CO)[C@@H](O)[C@@H]2F)cc1I [FIAU] | > 100 µM |  | CC50 [2]: > 100 µM

— patent publication US20220370464A1, “COMPOSITIONS AND METHODS OF TREATING OR PREVENTING OCULAR INFECTIONS WITH FILOCICLOVIR” (Microbiotix, Inc., priority 2019, published 2022)
